Source: PMC11944670, “Reshaping [^99mTc]Tc-DT11 to DT14D Tagged with Trivalent Radiometals for NTS1R-Positive Cancer Theranostics” (Pharmaceutics, 2025)
Residues, ends and D or L forms follow the SMILES beside them. *: point of attachment. DOTA = O=C(O)CN1CCN(CC(=O)O)CCN(CC(=O)*)CCN(CC(=O)O)CC1; X1 = Cc1ccc(CCCC(=O)NCCOCCOCCOCCOCC(=O)*)cc1; βAla = NCCC(=O)O

How the values were obtained:
in vivo = experiment: in vivo; set-up: species or system mice; details: male, SCID, mouse, iv, total radioactivity; for tissue uptake at 48 h / tissue uptake at 72 h / tissue uptake at 24 h: Biodistribution
Method: The distribution of [^67Ga]Ga/[^111In]In/[^177Lu]Lu-DT14D was investigated in male severe combined immunodeficiency (SCID) mice (49 mice in total, 6 weeks of age on arrival date, 22 ± 4 g, NCSR “Demokritos” Animal House, Athens, Greece) bearing NTS1R-positive AsPC-1 xenografts in their flanks. For xenograft induction, suspensions of freshly harvested AsPC-1 cells (5 × 10^6 cells in 150 µL sterile PBS) were subcutaneously injected into the mice’s flanks. The animals were kept under aseptic conditions and 4 weeks later developed well palpable masses at the inoculation sites (100 ± 50 mg) and biodistribution was conducted. On the day of the experiment, the animals received a bolus (100 μL, in vehicle: saline/EtOH 9/1 v/v) containing the radioligand via the tail vein. The following groups of four animals per time point, per treatment, were included per radioligand (the 4 h block groups comprised 3 animals instead) including the respective (radio)ligand amounts injected: i. 78–91 kBq [^67Ga]Ga-DT14D corresponding to 7–17 pmol DT14D at 1 and 4 h pi plus 4 h block (coinjection with 100 µg NT); ii. 74–92 kBq [^111In]In-DT14D corresponding to 20–25 pmol at 4 h (controls), 4 h pi (Entresto®; animals receiving a slurry of 12 mg/200 µL Entresto® oral gavage 30 min in advance) and 4 h block (coinjection with 100 µg NT); 24 h pi (including both controls and Entresto® mice groups); and iii. 730 kBq [^177Lu]Lu-DT14D corresponding to 40 pmol DT14D at 4, 24, 48, and 72 h pi plus 4 h block (co-injection with 100 µg NT). The animals were euthanized at predetermined time intervals, dissected and blood samples, organs of interest, and tumors were collected, weighed, and counted in the gamma counter. Biodistribution data were calculated as percent of the injected activity per gram tissue (%IA/g) with the aid of suitable standards of the administered activity. Results as the mean %IA/g values ± sd were obtained and statistical analysis was performed with PRISM^TM GraphPad—10.2 Software (San Diego, CA/USA), applying 2-way ANOVA with Tukey’s post hoc analysis, or, in the case of two variables, Šídák’s multiple comparisons test was adopted; differences with p < 0.05 were considered as statistically significant.

human NTS1R = molecular target: T1, human NTS1R (Homo sapiens, UniProt P30989); experiment: Competitive binding against [125I]I-Tyr3-NT in WiDr cell membrane homogenates; details: displacement of [125I]I-Tyr3-NT, WiDr cell membranes, mean ± sd, n = 3
T1 construct: in membrane homogenates obtained from WiDr cells; endogenous in cells; host or cells: WiDr cells (membrane homogenates)
Method: The affinity of metal-free D[…] and metal-tagged [^natGa]Ga/[^natIn]In/[^natLu]Lu-D[…] (Supplementary Materials) for the human NTS1R was evaluated via competitive binding assays. These assays were performed using the [^125I]I-Tyr^3-NT radioligand in membrane homogenates obtained from WiDr cells, which were stored at -80 °C in 100 μL aliquots of Tris/EDTA buffer (10 mM Tris, 0.1 mM EDTA, pH 7.4). On the day of the experiment, the membrane homogenates were thawed, combined, and diluted in ice-cold binding buffer (BB: 50 mM HEPES, 5.5 mM MgCl2, 0.1 mg/mL bacitracin, 1% w/v BSA, pH 7.4). Each of the above ligands (including NT as a control) was incubated in triplicate at increasing concentrations (ranging from 10^-13 M to 10^-6 M in BB, 30 μL) with [^125I]I-Tyr^3-NT (214 pM in 70 μL BB) and membrane homogenate (300 μL in BB) for 1 h at 22 °C in an Incubator-Orbital Shaker unit (MPM Instr. SrI, Bernareggio, Milan, Italy). […] The filters were washed with ice-cold washing buffer (WB, 10 mM HEPES pH 7.4, 150 mM NaCl), collected individually, placed in separate RIA tubes, and measured for their radioactivity content in a gamma counter (automated multi-sample well-type instrument with a NaI(Tl) 3'' crystal, Canberra Packard Cobra^TM Quantum U5003/1, Auto-Gamma® counting system; Canberra Packard Central Europe GmbH, Schwadorf, Austria). […]

[1] = 730 kBq, Tumor/Intestines ratio

T1 sequence (P30989 whole entry): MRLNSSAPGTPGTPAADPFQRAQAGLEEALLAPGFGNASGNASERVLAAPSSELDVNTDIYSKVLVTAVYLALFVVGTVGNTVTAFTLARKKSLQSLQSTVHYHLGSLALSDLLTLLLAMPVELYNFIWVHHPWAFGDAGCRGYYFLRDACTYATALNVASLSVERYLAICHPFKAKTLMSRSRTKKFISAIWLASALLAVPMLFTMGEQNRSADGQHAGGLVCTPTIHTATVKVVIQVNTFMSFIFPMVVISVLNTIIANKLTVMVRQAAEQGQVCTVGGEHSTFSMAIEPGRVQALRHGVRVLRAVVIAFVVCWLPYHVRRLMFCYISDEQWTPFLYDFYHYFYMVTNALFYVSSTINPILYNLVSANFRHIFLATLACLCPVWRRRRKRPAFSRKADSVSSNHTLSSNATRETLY

## CC[C@H](C)[C@H](NC(=O)[C@H](Cc1ccc(O)cc1)NC(=O)[C@@H]1CCCN1C(=O)[C@H](CCCNC(=N)N)NC(=O)[C@H](CCCNC(=N)N)NC(=O)[C@H](CCCCNC(=O)COCCOCCOCCOCCNC(=O)CCCc1ccc(C)cc1)NC(=O)CCNC(=O)CCNC(=O)CCNC(=O)CN1CCN(CC(=O)O)CCN(CC(=O)O)CCN(CC(=O)O)CC1)C(=O)N[C@@H](CC(C)C)C(=O)O [[^177Lu]Lu-DT14D, metal not drawn] ({DOTA-βAla-βAla-βAla}-K(X1)RRPYIL-OH)
In vivo; 40 pmol, Tumor/Blood ratio
  tissue to tissue ratio at 72 h: 29.8 ± 7.43
In vivo; 40 pmol, Tumor/Liver ratio
  tissue to tissue ratio at 48 h: 1.63 ± 0.14
  tissue to tissue ratio at 72 h: 1.44 ± 0.19
In vivo; 40 pmol, Tumor/Lungs ratio
  tissue to tissue ratio at 48 h: 11.4 ± 1
  tissue to tissue ratio at 72 h: 9.66 ± 1.43
In vivo; 40 pmol, Tumor/Pancreas ratio
  tissue to tissue ratio at 48 h: 20.4 ± 1.96
  tissue to tissue ratio at 72 h: 16.2 ± 5.04
In vivo; 730 kBq, AsPC-1 Tumor
  tissue uptake at 48 h: 1.56 ± 0.17 %ID/g
  tissue uptake at 72 h: 1.24 ± 0.2 %ID/g
In vivo; 730 kBq, Blood
  tissue uptake at 48 h: 0.05 ± 0.01 %ID/g
  tissue uptake at 72 h: 0.04 %ID/g
In vivo; 730 kBq, Femur
  tissue uptake at 48 h: 0.38 ± 0.03 %ID/g
  tissue uptake at 72 h: 0.35 ± 0.03 %ID/g
In vivo; 730 kBq, Heart
  tissue uptake at 48 h: 0.07 ± 0.01 %ID/g
  tissue uptake at 72 h: 0.06 ± 0.01 %ID/g
In vivo; 730 kBq, Intestines
  tissue uptake at 48 h: 0.36 ± 0.01 %ID/g
  tissue uptake at 72 h: 0.27 ± 0.02 %ID/g
In vivo; 730 kBq, Kidneys
  tissue uptake at 48 h: 0.88 ± 0.06 %ID/g
  tissue uptake at 72 h: 0.57 ± 0.15 %ID/g
In vivo; 730 kBq, Liver
  tissue uptake at 48 h: 0.96 ± 0.05 %ID/g
  tissue uptake at 72 h: 0.86 ± 0.1 %ID/g
In vivo; 730 kBq, Lungs
  tissue uptake at 48 h: 0.14 %ID/g
  tissue uptake at 72 h: 0.13 ± 0.04 %ID/g
In vivo; 730 kBq, Muscle
  tissue uptake at 48 h: 0.04 ± 0.01 %ID/g
  tissue uptake at 72 h: 0.04 ± 0.02 %ID/g
In vivo; 730 kBq, Pancreas
  tissue uptake at 48 h: 0.07 ± 0.01 %ID/g
  tissue uptake at 72 h: 0.08 ± 0.02 %ID/g
In vivo; 730 kBq, Spleen
  tissue uptake at 48 h: 1.6 ± 0.58 %ID/g
  tissue uptake at 72 h: 1.49 ± 0.51 %ID/g
In vivo; 730 kBq, Stomach
  tissue uptake at 48 h: 0.07 ± 0.01 %ID/g
  tissue uptake at 72 h: 0.04 ± 0.01 %ID/g
In vivo; 730 kBq, Tumor/Blood ratio
  tissue to tissue ratio at 48 h: 30.9 ± 3.67
In vivo; 730 kBq, Tumor/Heart ratio
  tissue to tissue ratio at 48 h: 23 ± 2.32
  tissue to tissue ratio at 72 h: 20.1 ± 3.03
In vivo; [1]
  tissue to tissue ratio at 48 h: 4.28 ± 0.33
  tissue to tissue ratio at 72 h: 4.65 ± 0.91
In vivo; 730 kBq, Tumor/Kidneys ratio
  tissue to tissue ratio at 48 h: 1.78 ± 0.3
  tissue to tissue ratio at 72 h: 2.26 ± 0.49
In vivo; 730 kBq, Tumor/Muscle ratio
  tissue to tissue ratio at 48 h: 39.2 ± 5.49
  tissue to tissue ratio at 72 h: 36.1 ± 14.6
In vivo; 730 kBq, Tumor/Spleen ratio
  tissue to tissue ratio at 48 h: 1.1 ± 0.51
  tissue to tissue ratio at 72 h: 0.89 ± 0.25
In vivo; 730 kBq, Tumor/Stomach ratio
  tissue to tissue ratio at 48 h: 23.8 ± 2.17
  tissue to tissue ratio at 72 h: 26.6 ± 5.58

## CC[C@H](C)[C@H](NC(=O)[C@H](Cc1ccc(O)cc1)NC(=O)[C@@H]1CCCN1C(=O)[C@H](CCCNC(=N)N)NC(=O)[C@H](CCCNC(=N)N)NC(=O)[C@H](CCCCNC(=O)COCCOCCOCCOCCNC(=O)CCCc1ccc(C)cc1)NC(=O)CCNC(=O)CCNC(=O)CCNC(=O)CN1CCN(CC(=O)O)CCN(CC(=O)O)CCN(CC(=O)O)CC1)C(=O)N[C@@H](CC(C)C)C(=O)O [[^111In]In-DT14D, metal not drawn] ({DOTA-βAla-βAla-βAla}-K(X1)RRPYIL-OH)
In vivo; AsPC-1 Tumor
  tissue uptake at 24 h: 2.82 ± 0.68 %ID/g
In vivo; Kidneys
  tissue uptake at 24 h: 1.7 ± 0.13 %ID/g
In vivo; Tumor/Intestines ratio
  tissue to tissue ratio at 24 h: 4.07 ± 0.42
In vivo; Tumor/Kidneys ratio
  tissue to tissue ratio at 24 h: 1.66 ± 0.4
In vivo; Tumor/Spleen ratio
  tissue to tissue ratio at 24 h: 1.77 ± 0.32

## CC[C@H](C)[C@H](NC(=O)[C@H](Cc1ccc(O)cc1)NC(=O)[C@@H]1CCCN1C(=O)[C@H](CCCNC(=N)N)NC(=O)[C@H](CCCNC(=N)N)NC(=O)[C@H](CCCCNC(=O)COCCOCCOCCOCCNC(=O)CCCc1ccc(C)cc1)NC(=O)CCNC(=O)CCNC(=O)CCNC(=O)CN1CCN(CC(=O)O)CCN(CC(=O)O)CCN(CC(=O)O)CC1)C(=O)N[C@@H](CC(C)C)C(=O)O [DT14D, DOTA-βAla-βAla-βAla-Lys(MPBA-PEG4)^7-Arg-Arg-Pro-Tyr-Ile-Leu-OH] ({DOTA-βAla-βAla-βAla}-K(X1)RRPYIL-OH)
Human NTS1R
  IC50: 2.56 ± 0.26 nM
